Test results: PubChem BioAssay (NCI)
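Interpolation was linear, between the two tested concentrations surrounding the appropriate level; five concentrations were tested over 48 hours in 96-well plates. GI50 is the concentration that inhibits growth by half. TGI marks complete inhibition of growth.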

Key:
Assay in all cases: growth of human tumour cells (NCI), 48 h
HOP-62 NSCLC = test system: HOP-62 NSCLC
UACC-62 melanoma = test system: UACC-62 melanoma
T-47D breast = test system: T-47D breast
HS 578T breast = test system: HS 578T breast
OVCAR-4 ovarian = test system: OVCAR-4 ovarian
UO-31 renal = test system: UO-31 renal
SNB-19 CNS = test system: SNB-19 CNS
K-562 leukemia = test system: K-562 leukemia
IGROV1 ovarian = test system: IGROV1 ovarian
SW-620 colon = test system: SW-620 colon

| SMILES | GI50 (HOP-62 NSCLC) [µM] | TGI (HOP-62 NSCLC) [µM] | GI50 (UACC-62 melanoma) [µM] | TGI (UACC-62 melanoma) [µM] | GI50 (T-47D breast) [µM] | TGI (T-47D breast) [µM] | GI50 (HS 578T breast) [µM] | TGI (HS 578T breast) [µM] | GI50 (OVCAR-4 ovarian) [µM] | TGI (OVCAR-4 ovarian) [µM] | GI50 (UO-31 renal) [µM] | TGI (UO-31 renal) [µM] | GI50 (SNB-19 CNS) [µM] | TGI (SNB-19 CNS) [µM] | GI50 (K-562 leukemia) [µM] | TGI (K-562 leukemia) [µM] | GI50 (IGROV1 ovarian) [µM] | TGI (IGROV1 ovarian) [µM] | GI50 (SW-620 colon) [µM] | TGI (SW-620 colon) [µM] |
| --- | --- | --- | --- | --- | --- | --- | --- | --- | --- | --- | --- | --- | --- | --- | --- | --- | --- | --- | --- | --- |
| CC(=O)OC1CC(C)c2c(Cl)ncnc21 (centres undefined) | > 100 | > 100 | > 100 | > 100 | > 100 | > 100 | > 100 | > 100 | > 100 | > 100 | > 100 | > 100 | > 100 | > 100 | > 100 | > 100 | > 100 | > 100 | > 100 | > 100 |
| O=C(Nc1ccc(Cl)cc1F)c1cc(Cl)ccc1O | 0.999 | > 24.5 | 0.279 | 1.11 | 0.253 | – | 0.341 | 3.65 | 0.34 | > 100 | 0.208 | 1.92 | 0.413 | > 100 | 0.361 | > 59.2 | 0.247 | > 100 | 0.7 | > 22.5 |
| NCC(=O)NC(CO)C(=O)O (centres undefined) | – | > 100 | – | > 100 | – | > 100 | – | > 100 | – | > 100 | – | > 100 | – | > 100 | – | > 100 | – | > 100 | – | > 100 |
| COc1ccc(NC(=O)CC(=O)n2nc(-c3ccccc3)c(N=Nc3ccccc3C)c2-c2ccccc2)cc1 | – | 33.8 | – | 46.6 | – | 57.7 | – | 35.6 | – | 59.5 | – | > 92 | – | > 69.7 | – | > 100 | – | 46.2 | – | > 62.3 |
| COc1cc(/C=N/Nc2ncnc3c2cnn3Cc2ccccc2)ccc1O | 5.24 | 11.8 | 10.4 | > 25 | 9.57 | > 25 | 4.16 | > 21.2 | 5.05 | 15.3 | 1.93 | 11.9 | 9.22 | > 25 | > 6.57 | > 25 | 14.8 | > 25 | > 25 | > 25 |
| O=C(Nc1ccc(O)c(NS(=O)(=O)c2ccc(F)cc2)c1)c1ccc(-c2ccccc2)cc1 | 19.9 | 40.2 | 7.53 | 28.1 | 3.07 | 18.4 | 5.42 | 31.8 | 4.45 | 25.3 | 3.35 | > 100 | 14.4 | 34.2 | 3.68 | 14.6 | 4.65 | 20.5 | 7.23 | 22.2 |
| O=C(Nc1cccc(-n2cc(-c3ccncc3)c(-c3ccc(O)c(Cl)c3)n2)c1)c1ccc(N2CCOCC2)c(C(F)(F)F)c1 | 3.07 | > 50 | > 50 | > 50 | 2.99 | > 50 | 0.548 | > 50 | > 50 | > 50 | 2.99 | > 50 | > 50 | > 50 | 1.45 | > 50 | > 50 | > 50 | 4.05 | > 50 |
| C/C=C(\C)C(=O)OC1C2C(C)C(=O)OC2C(O)C(C)C2C=CC(=O)C21C (centres undefined) | – | 40.3 | – | 26.1 | – | 43.3 | – | > 64.7 | – | > 74.7 | – | 32.8 | – | 26.3 | – | 17.4 | – | 25.5 | – | 28.7 |
| COc1cc([N+](=O)[O-])c(OC)cc1-c1nc2n(c1/C(N)=N/C(=N)N)CCS2 | 6.23 | 50.6 | 75.5 | > 100 | 86.8 | > 100 | 32.5 | > 100 | 44 | > 100 | > 100 | > 100 | 10.2 | > 100 | > 100 | > 100 | 17.7 | > 100 | > 100 | > 100 |
